molecular target: T1, human FAAH (Homo sapiens, UniProt O00519); test: Human FAAH biochemical inhibition assay (AMC arachidonoyl amide fluorescence); conditions: Table 2, human FAAH (no asterisk); read-out: Activity (Ki)
T1 construct: host or cells: COS-7 cells, transient transfection; 13,000 g membrane fraction solubilised in 1% Triton X-100
T1 sequence (O00519 1-579): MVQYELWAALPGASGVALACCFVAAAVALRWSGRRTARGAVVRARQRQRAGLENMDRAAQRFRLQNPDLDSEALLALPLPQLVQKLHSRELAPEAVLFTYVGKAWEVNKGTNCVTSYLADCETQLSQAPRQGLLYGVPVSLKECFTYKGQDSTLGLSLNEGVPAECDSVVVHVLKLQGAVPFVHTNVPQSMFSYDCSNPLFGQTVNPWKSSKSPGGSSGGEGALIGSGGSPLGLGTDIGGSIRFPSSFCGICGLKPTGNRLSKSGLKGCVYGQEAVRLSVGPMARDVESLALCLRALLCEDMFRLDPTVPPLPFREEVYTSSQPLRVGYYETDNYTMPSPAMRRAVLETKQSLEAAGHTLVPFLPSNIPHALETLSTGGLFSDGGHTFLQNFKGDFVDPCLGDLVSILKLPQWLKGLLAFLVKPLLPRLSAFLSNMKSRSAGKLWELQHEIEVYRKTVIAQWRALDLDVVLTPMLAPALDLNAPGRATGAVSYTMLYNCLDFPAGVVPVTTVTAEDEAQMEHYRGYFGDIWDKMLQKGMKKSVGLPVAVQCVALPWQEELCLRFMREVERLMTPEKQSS
Outline: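 Solubilized membrane fraction from COS-7 cells transfected with human FAAH, used at a final 0.05 mg/ml in 50 mM Hepes pH 7.5, 1 mM EDTA, 0.2% Triton X-100. Inhibitor pre-incubated 30 min at room temperature; 20 uM final AMC arachidonoyl amide added, reaction run 4 h at room temperature, fluorescence read.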

Ki	SMILES
> 1000 nM	CN(C)CCNC(=O)C(Oc1ccc(B(O)O)cc1)c1ccccc1 (stereo not shown) [II-215]
10 to 1000 nM	O=C(C(Oc1ccc(B(O)O)cc1)c1ccccc1)N1CCCCC1 (stereo not shown) [II-216]
10 to 1000 nM	O=C(NCc1ccccc1)C(Oc1ccc(B(O)O)cc1)c1ccccc1 (stereo not shown) [II-217]
10 to 1000 nM	CCCCNC(=O)C(Oc1ccc(B(O)O)cc1)c1ccccc1 (stereo not shown) [II-218]
10 to 1000 nM	CN(C)C(=O)C(Oc1ccc(B(O)O)cc1)c1ccccc1 (stereo not shown) [II-219]
< 10 nM	CCCCNC(=O)c1cccc(Oc2ccc(B(O)O)cc2)c1 [II-220]
< 10 nM	O=C(NCc1ccccc1)c1cccc(Oc2ccc(B(O)O)cc2)c1 [II-221]
> 1000 nM	O=S(=O)(Cc1ccccc1)c1ccc(B(O)O)cc1 [II-222]
10 to 1000 nM	O=C(c1ccc(B(O)O)cc1)N(Cc1ccccc1)Cc1ccccc1 [II-223]
10 to 100 nM	COC(=O)C(Oc1ccc(B(O)O)cc1)c1ccccc1 (stereo not shown) [II-224]
< 10 nM	CC(C)NC(=O)c1cccc(Oc2ccc(B(O)O)cc2)c1 [II-225]
10 to 100 nM	CN(C)C(=O)c1ccc(Oc2ccc(B(O)O)cc2)cc1 [II-227]
10 to 100 nM	CN(C)C(=O)c1cccc(Oc2ccc(B(O)O)cc2)c1 [II-228]
< 10 nM	CN(CCc1ccccc1)C(=O)c1ccc(B(O)O)cc1 [II-229]
10 to 100 nM	CN(C(=O)c1ccc(B(O)O)cc1)c1ccccc1 [II-230]
< 10 nM	OB(O)c1ccc(CSc2ccccc2)cc1 [II-231]
10 to 1000 nM	[O-][S+](Cc1ccc(B(O)O)cc1)c1ccccc1 (stereo not shown) [II-232]
10 to 100 nM	[O-][S+](Cc1ccccc1)c1ccc(B(O)O)cc1 (stereo not shown) [II-233]
< 10 nM	OB(O)c1ccc(SCc2ccccc2)cc1 [II-234]

Ki	SMILES
10 to 1000 nM	CN(C(=O)c1ccccc1)c1ccc(B(O)O)cc1 [II-235]
< 10 nM	CC(C)OC(=O)c1cccc(Oc2ccc(B(O)O)cc2)c1 [II-236]
10 to 100 nM	CC(Oc1ccc(B(O)O)cc1)c1ccccc1 (stereo not shown) [II-238]
< 10 nM	OB(O)c1ccc(COc2ccccc2)cc1 [II-242]
< 10 nM	CCCCOc1cccc(Oc2ccc(B(O)O)cc2)c1 [II-243]
< 10 nM	CC(C)Oc1cccc(Oc2ccc(B(O)O)cc2)c1 [II-245]
< 10 nM	CC(C)c1cccc(Oc2ccc(B(O)O)cc2)c1 [II-246]
10 to 100 nM	O=C(Cc1ccccc1)Nc1ccc(B(O)O)cc1 [II-248]
10 to 1000 nM	O=C(Nc1ccc(B(O)O)cc1)c1ccccc1 [II-249]
10 to 100 nM	Cc1cccc(COc2ccc(B(O)O)cc2)c1F [II-268]
< 10 nM	OB(O)c1ccc(OCc2ccc(Cl)cc2)cc1 [II-269]
10 to 100 nM	Cc1cccc(COc2ccc(B(O)O)cc2)c1 [II-270]
< 10 nM	CCCCOc1ccc(Oc2ccc(B(O)O)cc2)cc1F [II-271]
< 10 nM	Cc1ccc(Oc2ccc(B(O)O)cc2)cc1F [II-272]
< 10 nM	CCCOc1ccc(Oc2ccc(B(O)O)cc2)cc1F [II-273]
< 10 nM	Cc1ccc(Oc2ccc(B(O)O)cc2)cc1[N+](=O)[O-] [II-275]
< 10 nM	Cc1ccc(Oc2ccc(B(O)O)cc2)cc1Cl [II-276]
< 10 nM	Cc1ccc(Oc2ccc(B(O)O)cc2)cc1C [II-277]
< 10 nM	COc1ccc(Oc2ccc(B(O)O)cc2)cc1 [II-278]

Ki	SMILES
< 10 nM	COc1cccc(Oc2ccc(B(O)O)cc2)c1 [II-279]
< 10 nM	Cc1ccc(Oc2ccc(B(O)O)cc2)cc1 [II-280]
< 10 nM	Cc1cccc(Oc2ccc(B(O)O)cc2)c1 [II-281]
< 10 nM	COC(=O)c1ccc(Oc2ccc(B(O)O)cc2)cc1 [II-284]
< 10 nM	COC(=O)c1cccc(Oc2ccc(B(O)O)cc2)c1 [II-285]
10 to 100 nM	Nc1cccc(Oc2ccc(B(O)O)cc2)c1 [II-287]
10 to 100 nM	CC(C)(C)OC(=O)Nc1ccc(Oc2ccc(B(O)O)cc2)cc1 [II-288]
10 to 100 nM	CC(C)(C)OC(=O)Nc1cccc(Oc2ccc(B(O)O)cc2)c1 [II-289]
< 10 nM	OB(O)c1ccc(Oc2cccc(F)c2)cc1 [II-291]
10 to 1000 nM	OB(O)c1ccc(Oc2ccncc2)cc1 [II-292]
< 10 nM	OB(O)c1ccc(Oc2cccnc2)cc1 [II-293]
10 to 100 nM	CCCc1ccc(-c2ccc(B(O)O)cc2)cc1 [II-297]
10 to 100 nM	O=C(c1ccccc1)c1ccc(-c2ccc(B(O)O)cc2)cc1 [II-298]
10 to 100 nM	CC(=O)Oc1ccc(-c2ccc(B(O)O)cc2)cc1 [II-299]
10 to 100 nM	COc1ccc(-c2ccc(B(O)O)cc2)cc1 [II-300]
10 to 100 nM	OB(O)c1ccc(OCc2ccccc2)cc1 [II-314]
10 to 100 nM	OB(O)c1cccc(OCc2ccccc2)c1 [II-316]
< 10 nM	OB(O)c1ccc(Oc2ccccc2)cc1 [II-317]

Further lines, the compound ahead of its results:

SMILES	Ki
O=C(c1cccc(Oc2ccc(B(O)O)cc2)c1)N1CCCC1 [II-226]	10 to 100 nM
OB(O)c1ccc(OC2CCCCC2)cc1 [II-237]	< 10 nM
COc1c(C)cc(Oc2ccc(B(O)O)cc2)cc1C [II-239]	10 to 100 nM
COc1cc(Oc2ccc(B(O)O)cc2)cc(OC)c1OC [II-240]	10 to 100 nM
OB(O)c1ccc(CBr)cc1 [II-241]	> 1000 nM
OB(O)c1ccc(Oc2cccc(OC(F)(F)F)c2)cc1 [II-244]	< 10 nM
Cc1cc(COC(=O)c2ccc(B(O)O)cc2)ccc1F [II-247]	10 to 100 nM
Cc1cc(OCc2ccc(B(O)O)cc2)ccc1Cl [II-250]	< 10 nM
CCOc1ccc(Oc2ccc(B(O)O)cc2)cc1F [II-251]	< 10 nM
COc1ccc(Oc2ccc(B(O)O)cc2)cc1Cl [II-252]	< 10 nM
Cc1cc(Oc2ccc(B(O)O)cc2)ccc1F [II-253]	< 10 nM
Cc1cc(Oc2ccc(B(O)O)cc2)ccc1Cl [II-254]	< 10 nM
COc1ccc(Oc2ccc(B(O)O)cc2)cc1F [II-255]	< 10 nM
OB(O)c1ccc(Oc2ccc(C(F)(F)F)c(Cl)c2)cc1 [II-256]	< 10 nM
OB(O)c1ccc(Oc2ccc(Cl)c(C(F)(F)F)c2)cc1 [II-257]	< 10 nM
OB(O)c1ccc(Oc2cc(Cl)cc(Cl)c2)cc1 [II-258]	10 to 100 nM
OB(O)c1ccc(Oc2ccc(Cl)c(Cl)c2)cc1 [II-259]	< 10 nM
OB(O)c1ccc(Oc2cc(F)cc(F)c2)cc1 [II-260]	< 10 nM
OB(O)c1ccc(Oc2ccc(F)c(F)c2)cc1 [II-261]	< 10 nM

SMILES	Ki
COc1ccc(Oc2ccc(B(O)O)cc2)cc1OC [II-262]	< 10 nM
OB(O)c1ccc(Oc2cc(F)c(F)c(F)c2)cc1 [II-263]	< 10 nM
COc1ccc(Oc2ccc(B3OC(C)(C)C(C)(C)O3)cc2)cc1OC [II-264]	< 10 nM
Cc1cc(COc2ccc(B(O)O)cc2F)ccc1F [II-265]	< 10 nM
Cc1ccc(F)c(COc2ccc(B(O)O)cc2)c1Cl [II-266]	10 to 100 nM
Cc1cc(COc2ccc(B(O)O)cc2)ccc1F [II-267]	10 to 100 nM
OB(O)c1ccc(Oc2ccc3c(c2)OCO3)cc1 [II-274]	< 10 nM
COc1cc(B(O)O)ccc1Oc1cccc(F)c1 [II-282]	< 10 nM
Cc1cc(B(O)O)cc(C)c1Oc1cccc(F)c1 [II-283]	10 to 100 nM
Nc1ccc(Oc2ccc(B(O)O)cc2)cc1 [II-286]	10 to 100 nM
OB(O)c1ccc(Oc2ccc(F)cc2)cc1 [II-290]	< 10 nM
CC(=O)c1ccc(-c2ccc(B(O)O)cc2)cc1 [II-295]	< 10 nM
CC(C)(C)c1ccc(-c2ccc(B(O)O)cc2)cc1 [II-296]	10 to 1000 nM
OB(O)c1cnn(Cc2ccccc2)c1 [II-302]	> 1000 nM
NC(=O)c1cccc(-c2cccc(B(O)O)c2)c1 [II-303]	> 1000 nM
NC(=O)c1ccc(-c2cccc(B(O)O)c2)cc1 [II-304]	> 1000 nM
OB(O)c1ccc(-c2ccccc2F)cc1F [II-305]	< 10 nM
OB(O)c1ccc(-c2ccc(F)cc2)cc1F [II-306]	< 10 nM
OB(O)c1ccc(OCc2ccccc2)c(Cl)c1 [II-313]	10 to 100 nM

— US8329675B2, “Inhibitors of fatty acid amide hydrolase” (Infinity Pharmaceuticals, Inc., priority 2006, dated 2012)
